Experimental data published in patent US11378572B2, “Therapeutic agent for immune cell migration-caused disease and method for screening same” (ZYMEDI CO., LTD., priority 2017, dated 2022).

What was measured:
[1] = system: FHH rats with superimposed hypertension; test: FHH rat with superimposed hypertension (uninephrectomy, DOCA, 1% NaCl); format: in vivo
Description: Experiments were performed using male FHH rats of 9-12 weeks of age. These animals were provided by the University of Mississippi Medical Center and approved by the American Association for Accreditation of Laboratory Animal Care (AAALAC). All protocols were approved by the Institutional Animal Care and Use Committee of the University of Mississippi Medical Center. Rats were fed ad libitum, and provided with a purified AIN-76 rodent feed containing 0.4% NaCl (Dyets, Bethlehem, Pa.) after weaning. Fawn-hooded hypertensive (FHH) rat is a genetic model of spontaneous hypertension associated with glomerular hyperfiltration and proteinuria. In order to promote glomerular damage in this rat, DOCA strips were implanted after single (one) kidney extraction.
Specifically, FHH rats were anesthetized with isoflurane and telemetry transmitters (model TA11PAC40, Data Sciences International, St. Paul, Minn.) were implanted as described in ‘Williams, J. M. et al. […] Regul Integr Comp Physiol (2012)’. Briefly, surgery was performed under 2% to 3% isoflurane-O2, and the catheter of the device was inserted into the left femoral artery and guided upstream to the aorta. Body part of the telemetry unit was placed in the lateral cavity of the left leg and sutured with muscle tissue. Skin was then closed. To prevent infection, animals were given Baytril (10 mg/kg) and Rimadyl (5 mg/kg), a long-acting analgesic to control surgical pain. After surgery, rats were housed in individual cages in a quiet air-conditioned room environment with a 12:12 hour light-dark cycle and it took a week to fully recover from surgery. Thereafter, the basic mean arterial blood pressure (MAP) and proteinuria were measured for 4 hours (10 am to […]) before the rats were housed in the metabolic cage. Proteinuria was measured using the Bradford method and BSA (Bio-Rad Laboratories, Hercules, Calif.) as a standard.
One week after the transmitter insertion, rats were uninephrectomized as described in Wang, X. et al. Am J Physiol Renal Physiol (2016). Briefly, rats were anesthetized with 2-3% isoflurane-O2 and the right flank was dissected in aseptic condition. The right kidney was gently lifted and threaded tightly around the renal vessels and ureters. The right kidney was extracted by cutting the distal ends of the renal vessels and ureters. The incision was closed with a continuous subcutaneous stitch, after which the skin was further closed. After the rat's right kidney was removed, DOCA pellets (200 mg, Innovative Research of America) was subcutaneously implanted in the neck.
After single kidney extraction and DOCA transplant surgery, rats had recovery time for 3 days. Rats were provided with water containing 1% NaCl in place of distilled water, and randomly divided into two groups: Group 1 (n=15) was administered with BC-KI-00053 (25 mg/kg daily) by gastrointestinal gavage; Group 2 (n=15) was administered with the same volume (2.5 ml/kg daily) of vehicle (corn oil, polyethylene glycol 400, Tween 80 and methylcellulose) by gastrointestinal gavage. Blood pressure and proteinuria were measured weekly for 3 weeks in the experimental group. At the end of the experiment, rats were anesthetized with isoflurane and blood samples were taken to measure creatinine levels. Rats were then flushed with 50 ml of 0.9% NaCl through aorta and perfused with 20 ml of 4% paraformaldehyde. Kidneys and hearts were collected for histological evaluation.
Paraffin sections prepared with a thickness of […] were stained with Masson's trichrome to measure the degree of glomerular damage and renal interstitial fibrosis. Images were obtained using a Nikon Eclipse 55i microscope and NIS-Elements D 3.0 software equipped with Nikon DS-Fil color camera (Nikon, Melville, N.Y.). The degree of glomerular damage was assessed by the blinded experimenter, rating from 0 to 4+ for 30-40 […]. […]

[2] = system: Dahl salt-sensitive (SS) rats; test: Dahl salt-sensitive (SS) rat on high salt diet; format: in vivo
Description: Experiments were performed using male Dahl SS rats at 9-12 weeks of age. These animals were provided by the University of Mississippi Medical Center and approved by the American Association for Accreditation of Laboratory Animal Care (AAALAC). All protocols were approved by the Institutional Animal Care and Use Committee of the University of Mississippi Medical Center. Rats were fed ad libitum, and these rats were provided with a purified AIN-76 rodent feed containing 0.4% NaCl (Dyets, Bethlehem, Pa.) after weaning. Dahl salt-sensitive (SS) rat is an animal model that rapidly develops high hypertension, proteinuria, glomerulosclerosis and renal interstitial fibrosis on high salt (HS) diet.
Dahl SS rats were anesthetized with isoflurane and telemetry transmitters (model TA11PAC40, Data Sciences International, St. Paul, Minn.) were aseptically implanted in the same manner as described above. After surgery, rats were housed in individual cages in a quiet air-conditioned room environment with a 12:12 hour light-dark cycle and it took a week to fully recover from surgery. Then, the baseline mean arterial blood pressure (MAP) was measured before the rats were placed in the metabolic cage to measure urine protein excretion. Proteinuria was measured using the Bradford method and BSA (Bio-Rad Laboratories, Hercules, Calif.) as a standard.
Rats were then randomly divided into two experimental groups: Group 1 (n=15) was treated with BC-KI-00053 (25 mg/kg daily) by gastrointestinal gavage; Group 2 (n=15) was administered by gastrointestinal gavage with the same volume (2.5 ml/kg per day) of vehicle (corn oil, polyethylene glycol 400, Tween 80 and methyl cellulose). Simultaneously with the administration of agents, feed was changed to HS feed containing 8% NaCl (Dyets, Bethlehem, Pa.) and blood pressure and proteinuria were measured at 7, 14 and 21 days after starting HS feed. At the end of the experiment, rats were anesthetized with isoflurane and blood samples were taken to measure creatinine levels. Rats were then flushed with 50 ml of 0.9% NaCl through the aorta and perfused with 20 ml of 4% paraformaldehyde. Kidneys and hearts were collected for histological evaluation.
Paraffin section preparation and evaluations of the degree of glomerular damage, cortex and medulla fibrosis were performed as described above. In addition, immunohistochemical staining (IHC) for CD68, a monocyte/macrophage marker for kidney tissue, was performed in the same manner as in Example 8.
Statistics: Each data is expressed as mean±SEM. Comparison between groups was analyzed by two-tailed test. P value p<0.05 was considered statistically significant.

[3] = 25 mg/kg daily 3 weeks, Masson's trichrome
[4] = 25 mg/kg daily 3 weeks, score 0 to 4+
[5] = 25 mg/kg daily, after two weeks of treatment
[6] = 25 mg/kg daily, end of experiment
[7] = basal, before treatment, mean±SEM

COc1ccc(CCN(Cc2ccc(C(=O)O)cc2)c2nc3cccc(F)c3s2)cc1 [BC-KI-00053, 4-({(7-fluorobenzo[d]thiazol-2-yl)[2-(4-methoxyphenyl)ethyl]amino}methyl)benzoic acid]
renal tissue infiltration of monocytes/macrophages (CD68 IHC) ([1]; 25 mg/kg daily 3 weeks): significantly reduced
cortical fibrosis [1, 3]: 5.79±0.48%
renal medulla fibrosis [1, 3]: 7.40±0.56%
cardiac fibrosis ([1]; 25 mg/kg daily 3 weeks, Sirius red, right ventricular insertion point): 9.14±2.18%
mean glomerular injury score [1, 4]: 1.49±0.05
body weight reduction during the study period ([1]; 25 mg/kg daily gavage, 3 weeks): approximately 10%
MAP ([1]; 25 mg/kg daily, after one week of treatment): 174.4±3.83 mmHg
MAP [1, 5]: 168.8±3.74 mmHg
proteinuria [1, 5]: 285.5 ± 47.48 mg/day
plasma creatinine concentration [1, 6]: 0.48 ± 0.02 mg/dL
proteinuria ([1]; 25 mg/kg daily, study completed (3 weeks)): 433.1 ± 60.59 mg/day
MAP ([1]; 25 mg/kg daily, three weeks): 176.9±5.83 mmHg
MAP [1, 7]: 120.1±0.62 mmHg
basal body weight [1, 7]: 304.7 ± 5.39 g
proteinuria ([1]; baseline, before treatment): 51.0 ± 4.9 mg/day
cortical fibrosis ([2]; 25 mg/kg daily 3 weeks): 6.47±0.46%
renal medulla fibrosis ([2]; 25 mg/kg daily 3 weeks): 12.33±0.78%
renal tissue infiltration of monocytes/macrophages (CD68 IHC) ([2]; 25 mg/kg daily 3 weeks): significantly reduced
cardiac fibrosis ([2]; 25 mg/kg daily 3 weeks, Sirius red): 6.63±0.94%
mean glomerular injury score [2, 4]: 1.34±0.04
body weight during the study period ([2]; 25 mg/kg daily gavage, 3 weeks): maintained or increased slightly
MAP ([2]; 25 mg/kg daily, after 2 weeks of treatment, HS diet): 164.43±3.00 mmHg
proteinuria ([2]; 25 mg/kg daily, after one week of treatment, HS diet): 302.86 ± 29.76 mg/day
proteinuria ([2]; 25 mg/kg daily, after two weeks of treatment, HS diet): 510.64 ± 42.42 mg/day
plasma creatinine concentration [2, 6]: 0.55 ± 0.01 mg/dL
proteinuria ([2]; 25 mg/kg daily, end of study, HS diet): 524.55 ± 44.70 mg/day
MAP ([2]; 25 mg/kg daily, study completed (21 days), HS diet): 178.48±3.49 mmHg
MAP ([2]; baseline, before treatment): 123.45±2.36 mmHg
proteinuria ([2]; baseline, before treatment): 113.27 ± 8.06 mg/day
baseline body weight ([2]; baseline, before treatment, mean±SEM): 350.13 ± 9.173 g
